In US20180162825A1, “NOVEL DGAT2 INHIBITORS” (Eli Lilly and Company, priority 2015, published 2018):

Experiments:
human DGAT2 [1] = target: T1, human DGAT2 (Homo sapiens, UniProt Q96PD7); assay: Diacylglycerol Acyltransferase 2 (DGAT2) Biochemical Assay; settings: geometric mean; recombinant human DGAT2 with FLAG tag, 1 hr at RT, 14C oleoyl-CoA; read-out: IC50 (nM), ± SD, (n) = number of experiments
T1 sequence (Q96PD7 1-388): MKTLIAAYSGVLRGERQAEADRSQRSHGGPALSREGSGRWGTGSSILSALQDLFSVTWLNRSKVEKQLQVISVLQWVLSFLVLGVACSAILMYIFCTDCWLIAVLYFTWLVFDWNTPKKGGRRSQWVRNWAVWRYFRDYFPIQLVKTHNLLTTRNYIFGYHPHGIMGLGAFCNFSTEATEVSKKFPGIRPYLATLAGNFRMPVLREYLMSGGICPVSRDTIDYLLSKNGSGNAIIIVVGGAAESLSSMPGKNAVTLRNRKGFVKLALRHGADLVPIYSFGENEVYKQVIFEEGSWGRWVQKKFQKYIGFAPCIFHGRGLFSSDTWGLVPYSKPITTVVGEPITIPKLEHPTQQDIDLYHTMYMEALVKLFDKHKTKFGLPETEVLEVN
Protocol: The in vitro inhibitory activity of compounds against human DGAT2 is evaluated in this assay. The assay uses recombinant human DGAT2 with a FLAG tag at the amino terminus, expressed in genetically engineered insect SF9 cells, and purified through affinity chromatography.
DGAT2 catalyzes transfer of an acyl moiety from acyl-Coenzyme A onto diacylglycerol, to form triacylglycerol. In this particular embodiment of the assay oleate is used as the acyl moiety that is transferred. To facilitate miscibility of all lipid components, all lipids used in the assay contain oleyl moiety as the only acyl group.
Prior to starting the assay prepare a mixture of dioleoyl glycerol (DOG) and dioleoyl phosphatidylcholine (DOPC) at 3:7 molar ratio. Mix appropriate amount of DOPC and DOG dissolved in chloroform in a borosilicate glass test tube. Evaporate the solvent under stream of argon to form a film of lipid. Subsequently, place the test-tube under vacuum (<1 Torr) for 2 hrs to remove residual solvent. Add appropriate amount of buffer containing TrisHCl (pH 7.5, 150 mM), and sucrose (250 mM) to achieve 20 mM concentration of total lipid. Assure complete suspension of the lipid film by vigorous vortexing. Sonicate the contents of the tube in a water bath sonicator under standing wave conditions until the suspension turns from turbid to translucent, to assure conversion of liposomes into small unilamellar vesicles (SUVs)
Prepare the test compound by dissolving it and serially diluting in half-log increments in DMSO. For each concentration, perform 10-fold step dilution of compound solution in DMSO into buffer containing TrisHCl (pH 7.5, 150 mM), and sucrose (250 mM).
Mix SUV suspensions and compound solution with other components of the assay to achieve the following concentration of individual ingredients: TrisHCl (pH 7.5, 150 mM), sucrose (250 mM), MgCl2 (5 mM,), dithiothreitol (DTT) (0.5 mM), oleoyl coenzyme A (oleoyl-CoA) (12 μM), 1-^14C oleoyl coenzyme A (oleyl-CoA-^14C) (8 μM), dioleoyl glycerol (DOG) (0.6 mM), and dioleoyl phosphatidylcholine (DOPC) (1.4 mM), DGAT2 protein (0.5 nM), DMSO (1%, v/v), with test compound concentration within a 1 nM to 100 μM range, in 30 μl total volume. Incubate the reaction for 1 hr at RT (approximately 21° C.) in individual wells of a 384-well plate. After 1 hr, stop the reaction by adding 23 μl stop solution containing a mixture of isopropanol:EtOH:heptane:DI water: 1 N NaOH (59:12.5:15:11:2.5, by volume). Add 42 μL Microscint E and then incubate mixture overnight to extract the triglyceride into the organic solvent layer containing scintillant. Measure the radioactivity using a Perkin-Elmer TopCount instrument. […] Calculate the degree of inhibition of DGAT2 by measuring the radioactivity at 10 different concentrations for each compound. […]

human DGAT2 [2] = target: T1, human DGAT2; assay: Diacylglycerol Acyltransferase 2 (DGAT2) Cell-Based Assay (HepG2); parameters: This assay uses human hepatoma cell-line, HepG2, as a source of acyltransferase activity; endogenous in cells; host or cells: HepG2; settings: geometric mean; HepG2 cells, incorporation of 13C18-oleate into triolein normalized to POPC; read-out: IC50 (nM) mean ± SD, (n) = number of experiments
Protocol: The inhibitory activity of compounds against human DGAT2 in a cell environment is evaluated in this assay. This assay uses human hepatoma cell-line, HepG2, as a source of acyltransferase activity.
HepG2 cell line is a commonly used model for metabolic reactions that occur in human hepatocytes in vivo. Synthesis of triglyceride in this cell line is followed by measuring incorporation of isotopically labeled oleate into triolein (a triglyceride with 3 oleoyl moieties).
Dispense the HepG2 cells into a 96-well microplate, which has been previously coated with Poly-D-lysine, in an amount of 50,000 cells/well in 100 μL Minimal Essential Media (MEM) with 10% Fetal Bovine Serum (FBS). Incubate the cells for 16 hr at 37° C. Replace the cell culture medium with MEM containing 2% Bovine Serum Albumin. Dissolve the test compound in 0.5% DMSO and prepare serial dilutions in half-log increments. Add the serially diluted test compound into separate wells. Incubate for 0.5 hr at 37° C. Thereafter replace the cell culture medium with a medium of the same composition, but which includes 50 μM ^13C18-oleate and 300 μM hydropropyl-β-cyclodextrine. Incubate for an additional 4 hr at 37° C. Discard the cell culture medium by flipping the microplate over thereby draining the wells and then soaking up any residual media from the wells with a paper towel. Dry the microplate at ambient temperature (˜21° C.) for 10 min. Add aliquots of 125 μL of solvent (isopropyl alcohol:tetrahydrofuran:methanol:chloroform, in a ratio of 90:10:2.5:2.5 v/v), an internal standard for phosphatidylcholine (PC), and an internal standard for triacylglycerol (TG) to each well. Seal and shake the plate for 30 min at ambient temperature. Transfer 100 μL aliquots of the upper phase of each well into a wells of a deep-well plate (2 mL per well). Analyze the contents of the wells using mass-spectrometry analysis. Measure both triolein with a single ^13C18-oleate moiety and POPC using liquid chromatography/mass spectroscopy method (LC/MS). The degree of incorporation of a single ^13C18-oleate moiety into triolein, normalized to the concentration of 1-palmitoyl-2-oleoyl-phosphatidylcholine (POPC) is used as a measure of DGAT2 activity.
Determine the IC50 for each compound, using a 4 parameter logistic curve fit.

[3] = test system: LDL-c, VLDL-c and TG serum concentrations; assay: In Vivo Efficacy Model: LDL-c, VLDL-c and TG in LDL receptor-deficient mice; settings: 30 mg/kg bid, fourteen days, oral gavage, vs control group
Description: The compounds described herein can be evaluated in an in vivo efficacy model. This assay measures the potency of compounds by measuring the reduction in low density lipoprotein cholesterol (LDL-c), very low density lipoprotein cholesterol (VLDL-c), and triglycerides (TG). Male, LDL receptor-deficient mice (29 weeks old, each approximately 30 g in weight) are used in this assay.
Feed the mice a standard mouse chow diet for two weeks prior to dosing. Prepare a test solution for oral gavage by suspend the compounds in acacia at 0.3, 1, and 3 mg/mL. Separate the mice into a test group and a control group. Thereafter at the first day of the third week dose the mice in the test group with the test solution for fourteen days, BID. Similarly dose the mice in the control group with just the vehicle without any of the test compound. Four hours after the last dose euthanize the mice with CO2. Immediately collect the blood via cardiac puncture. Isolate the serum to measure serum triglycerides as well as cholesterol in individual lipoprotein fractions. Separate the lipoprotein fractions by known HPLC methods. Determine the cholesterol concentration associated with each lipoprotein fraction by a colorimetric method (Roche Cholesterol/HP Reagent 11875540), using isolated lipoprotein fractions with known cholesterol concentration as standards. Results obtained at the highest dose, can be expressed as the percentage of change in comparison of the LDL-c, VLDL-c and TG serum concentrations of mice in the test group to those of mice n the control group.
The results for the compound of Example 24 at 30 mg/kg bid are listed below in Table 21.

plasma triglycerides = assay: In Vivo Pharmacodynamic Assay: reduction in plasma triglycerides in mice; settings: Mus musculus, po; male C57BL6 mice, gavage, with 3 mg/kg DGAT1 inhibitor and tyloxapol; reduction in plasma triglycerides vs control; read-out: ED50 (mg/kg) SD
Protocol: This assay measures the potency of compounds by measuring the reduction in plasma triglycerides in mice treated with the test compounds compared to control animals that are treated only with the vehicle solution. Male, C57BL6 mice (10-11 weeks old, each approximately 22 g in weight) are used in this assay.
Triglycerides synthesized in the liver are secreted into circulation as a component of the Very Low Density Lipoprotein (VLDL). To prevent degradation of triglycerides in circulation by the Lipoprotein Lipase (LPL), this assay uses IV injection of a detergent, tyloxapol, which inhibits activity of LPL. Since another enzyme, DGAT1, participates in the synthesis of liver triglyceride, a saturating dose of a DGAT1 inhibitor (sodium {trans-4-[4-(4-amino-7,7-dimethyl-7H-pyrimido[4,5-b][1,4]oxazin-6-yl)phenyl]cyclohexyl}acetate, IUPAC ACDLABS naming convention, see Dow et al. Bioorg. & Med. Chem., (2011) 21(20), 6122-6128) is also used in this assay. […]
Collect the blood via cardiac puncture into tube containing the anti-coagulant EDTA. […] Freeze the plasma samples on dry ice until they are to be analyzed. […] Reduction in total triglycerides in the test mice is calculated relative to the concentration of triglycerides in the control mice.

[4] = therapy with lomitapide; cited from earlier work

Row | Structure (SMILES) | IC50 (human DGAT2 [1]) [nM] | IC50 (human DGAT2 [2]) [nM] | LDL-c % change [3] [%] | Triglycerides % change [3] [%] | VLDL-c % change [3] [%] | ED50 (plasma triglycerides) [mg/kg] | increase in the liver fat content [4] [fold]
1 | CNS(=O)(=O)Cc1ccc(Oc2cc(CNc3ncc(Cl)cn3)nc(C(F)(F)F)n2)cc1 [Example 10, 1-[4-[6-[[(5-Chloropyrimidin-2-yl)amino]methyl]-2-(trifluoromethyl)pyrimidin-4-yl]oxyphenyl]-N-methyl-methanesulfonamide] | 52 ± 27 | 17 ± 1 | – | – | – | – | –
2 | CN1CCN(c2nc(CNc3ncc(Cl)cn3)cc(Oc3ccc(CS(N)(=O)=O)cc3)n2)CC1 [Example 24, [4-[6-[[(5-Chloropyrimidin-2-yl)amino]methyl]-2-(4-methylpiperazin-1-yl)pyrimidin-4-yl]oxyphenyl]methanesulfonamide] | 579 ± 169 | 9 ± 6 | −61 | −56 | −74 | 0.8 ± 0.09 | –
3 | O=C(NC1CCN(CCCCC2(C(=O)NCC(F)(F)F)c3ccccc3-c3ccccc32)CC1)c1ccccc1-c1ccc(C(F)(F)F)cc1 [lomitapide] | – | – | – | – | – | – | 8

The remaining compounds from weak to strong by IC50 (human DGAT2 [1]), led by results:

Row | IC50 (human DGAT2 [1]) [nM] | IC50 (human DGAT2 [2]) [nM] | Structure (SMILES) | LDL-c % change [3] [%] | Triglycerides % change [3] [%] | VLDL-c % change [3] [%] | ED50 (plasma triglycerides) [mg/kg] | increase in the liver fat content [4] [fold]
4 | 103 ± 51 | 53 | CCc1cnc(NCc2cc(Oc3ccc(CCNS(C)(=O)=O)cc3)nc(N)n2)nc1 [Example 57, N-[2-[4-[2-Amino-6-[[(5-ethylpyrimidin-2-yl)amino]methyl]pyrimidin-4-yl]oxyphenyl]ethyl]methanesulfonamide] | – | – | – | 0.23 ± 0.03 | –
5 | 27 ± 15 | 36 ± 1 | CCc1cnc(NCc2ccnc(Oc3ccc(CS(N)(=O)=O)cc3F)c2)nc1 [Example 7, [4-[[4-[[(5-ethylpyrimidin-2-yl)amino]methyl]-2-pyridyl]oxy]-3-fluoro-phenyl]methanesulfonamide] | – | – | – | – | –
